From US7358278B2, “Cellular phosphorylation potential enhancing compositions preparation and use thereof” (priority 1994, dated 2008)
Marks after values point to notes of the source that are not given here.

Assays:
GT1-7 neurons [1] = test: Whole cell NADH levels by NADH fluorescence in suspended cells; type: cell-based, rat; conditions: 1 mM each, 1 hour incubation, Locke's media; * significant vs Locke's medium alone P<0.05
Method: (§1) While each of these agents may have additional neuroprotective properties outside of their role in energy metabolism, our major premise is that this combination will provide neuroprotection through enhancement of brain energy levels. To assess this we monitored three different bioenergetic parameters: Whole cell NADH levels, cellular ATP levels and cellular phosphocreatine levels. GT1-7 cells or cross-chopped rat cerebral cortical slices were equilibrated in oxygenated Locke's media for 1 hour. Pyruvate, nicotinamide, or creatine were than added alone or in combination at 1 mM each. Analytes were measured after another hour of incubation. NADH was measured using its specific fluorescence properties in suspended cells and the effect of each nutrient alone and in combination on GT1-7 neuronal NADH levels is shown in table 2a. Pyruvate would be expected to raise mitochondrial NADH levels through its participation in the Krebs cycle and it indeed appears to account for all of this effect in the combination. ATP and phosphocreatine were measured via a chemiluminescent assay utilizing firefly luciferase. In viable cells, phosphocretine levels most adequately reflect cellular energy supply since cells readily convert any excess ATP into phosphocreatine.

GT1-7 neurons [2] = test: Cellular ATP and phosphocreatine levels, chemiluminescent firefly luciferase assay; type: cell-based, rat; conditions: 1 mM each, 1 hour incubation; for ATP (% control) / CP (% control): Locke's media; for CP (% control): phosphocreatine
Method: as §1

[3] = test system: rat cerebral cortical slices; test: ATP and phosphocreatine levels in cross-chopped cerebral cortical slices, firefly luciferase assay; type: cell-based; conditions: 1 mM each
Method: as §1, with “Analytes were measured after another hour of incubation.” left out, “phosphocreatine. […] The response with the combination was larger and was maintained after 6 hours of continued incubation.” for “phosphocreatine.”

GT1-7 cells = test: Thapsigargin (calcium overload) toxicity, neuroprotection, MTT dye reduction assay; conditions: 20 micromolar thapsigargin, FIG. 4B
Method: GT1-7 cell were subjected to treatments and assessed for nutrient neuroprotection as described in the text. All data are means +/− SEM from at least three different experiments.
To study calcium overload toxicity, we treated cells with thapsigargin, an agent that blocks the endoplastic reticulum calcium pump and markedly elevates cytoplasmic calcium levels. […] All studies were performed in Locke's medium prepared in our laboratory to avoid contribution from the vitamins and additives typically found in many commercial media. After determining the toxin treatment dose needed to produce complete toxicity, we then treated the cells dose-dependently with pyruvate, nicotinamide (nicotinamide) and creatine, either alone or in combination along with the LD95 dose of the toxins. […] For the combination experiments, all three agents are added together and the x-axis indicates the concentration of each agent in the combination.

[4] = test system: rat cerebral cortical astrocytes; type: cell-based; conditions: FIG. 11
Method: Astrocytes were treated with increasing amounts of the ER calcium pump inhibitor thapsigargin for 24 hrs in either Krebs buffer or MEM. Cell viability was determined using the MTT assay.
FIG. 10. Exogenous pyruvate provides protection to astrocytes from calcium overload in Krebs Buffer.
For these experiments astrocytes were cultured in either MEM or in Krebs alone or in Krebs with different aminoacid additions grouped as in FIG. 8. Aminoacids were used at 1 mM each. Following 30 min incubation with aminoacids, 15 μM thapsigargin was added to the cultures and the astrocytes cultured for another 24 hours in the presence or absence of 10 mM cinnamate, at which point cell viability was determined using the MTT assay. Cell viability is expressed as percent of that seen with MEM without thapsigargin addition. At the 15 μM thapsigargin dose, about 80% viability is seen in MEM and this is reduced to 20% by the addition of pyruvate. […]
The combination of pyruvate, nicotinamide, and creatine has synergistic benefits for cellular energy metabolism and is also cytoprotective. […] Since we had shown that pyruvate protects neurons from calcium overload induced by thapsigargin toxicity, we first determined whether endogenously produced or exogenously supplied pyruvate could protect astrocytes from calcium overload induced by thapsigargin as shown previously for GT1-7 neurons. […]

rat cortical neurons = test: Glutamate-induced delayed toxicity, neuroprotection, MTT assay; conditions: FIG. 5b
Method: Cell death (glutamate toxicity) was measured using the MTT assay.
The glutamate exposure involved treatment wit 100 micromoolar glutamate for 30 min followed by its removal. […] All data are means +1-SEM from at least three different experiments.
To study glutamate neurotoxicity, we utilized primary cultures of rat cortical neurons and used a glutamate pulse model which produces delayed neuronal death in 24 hrs. All studies were performed in Locke's medium prepared in our laboratory to avoid contribution from the vitamins and additives typically found in many commercial media.
To determine whether the protective effects of pyruvate against glutamate toxicity were due to its effect on cell metabolism, we utilized 4-hydroxycinnamate, a compound that blocks the transporter by which pyruvate enters mitochondria. While pyruvate can exert its antioxidant effects in any compartment, its utilization in energy metabolism requires its entry into mitochondria.

| Compound | NADH fluorescence (GT1-7 neurons [1]) | CP/ATP Ratio (GT1-7 neurons [2]) | ATP (% control) (GT1-7 neurons [2]) | CP (% control) (GT1-7 neurons [2]) | ATP % ctr ([3]; 1 h) | CP % ctr ([3]; 1 h) | CP/ATP Ratio ([3]; 1 h) | ATP % ctr ([3]; 6 h) | CP % ctr ([3]; 6 h) | CP/ATP Ratio ([3]; 6 h) | protection against calcium overload (in words) (GT1-7 cells) | effect of cinnamate on susceptibility of MEM cultured astrocytes to thapsigargin (in words) [4] | effect on glutamate toxicity alone (in words) (rat cortical neurons) | effect on the protection by pyruvate (in words) (rat cortical neurons) |
| --- | --- | --- | --- | --- | --- | --- | --- | --- | --- | --- | --- | --- | --- | --- |
| CC(=O)C(=O)O [Pyruvate, pyruvate] | 134.64 ± 9.9* | 6 | 103.5 ± 17.7 % control | 551.7 ± 193.7 % control | 77.7 % ctr | 233.6 % ctr | 3.1 | 143.6 % ctr | 150.6 % ctr | 1 |  |  |  |  |
| CN(CC(=O)O)C(=N)N [Creatine, creatine] | 99.3 ± 2.3 | 115.2 | 42 + 14.2* % control | 3314.3 + 920* % control |  |  |  |  |  |  | nearly complete dose dependent protection |  |  |  |
| NC(=O)c1cccnc1 [Nicotinamide, nicotinamide] | 98.8 ± 2.2 | 4.3 | 48.6 ± 23.4 % control | 133.1 + 25 % control |  |  |  |  |  |  | nearly complete dose dependent protection |  |  |  |
| O=C(O)C=Cc1ccc(O)cc1 [4-hydroxycinnamate] |  |  |  |  |  |  |  |  |  |  |  | more susceptible to thapsigargin toxicity | no significant effect on glutamate toxicity alone | prevents the protective effects of pyruvate |
